Data taken from PubChem BioAssay (NCI).
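Exposure lasted 48 hours, with cells grown in 96-well plates and compounds tested at five concentrations. Abbreviation: GI50, concentration required for 50% inhibition of growth. Definition used: TGI = concentration required for complete inhibition of growth.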 *1 amine or outer side, *2 acyl side, *3 side chain or, on linkers, in order; H or OH if unused. Where a SMILES comes first, the peptide text is derived from it. [ ]: non-standard residue; d: D form. The star is where a group is joined. X11 = C/C=C/CC(C)C(O)[C@H](N[*:1])C(=O)[*:2]; Decanoyl = CCCCCCCCCC(=O)*; Leu(ol) = CC(C)C[C@H](N)CO; Iva = CC[C@](C)(N)C(=O)O; Aib = CC(C)(N)C(=O)O

How the values were obtained:
Assay in all cases: NCI tumour cell line growth inhibition, 48 h
[1] = test system: COLO 205 colon
[2] = test system: UO-31 renal
[3] = test system: SK-OV-3 ovarian
[4] = test system: HOP-92 NSCLC
[5] = test system: RPMI-8226 leukemia
[6] = test system: SF-268 CNS
[7] = test system: TK-10 renal
[8] = test system: HOP-62 NSCLC
[9] = test system: T-47D breast
[10] = test system: OVCAR-5 ovarian
[11] = test system: SNB-19 CNS
[12] = test system: NCI-H522 lung
[13] = test system: HS 578T breast
[14] = test system: LOX IMVI melanoma
[15] = test system: OVCAR-8 ovarian
[16] = test system: HCT-15 colon
[17] = test system: MDA-MB-231 breast
[18] = test system: K-562 leukemia
[19] = test system: HT29 colon
[20] = test system: OVCAR-4 ovarian
[21] = test system: ACHN renal
[22] = test system: KM12 colon
[23] = test system: SK-MEL-28 melanoma
[24] = test system: EKVX NSCLC
[25] = test system: SN12C renal
[26] = test system: SR leukemia
[27] = test system: MOLT-4 leukemia
[28] = test system: SF-539 CNS
[29] = test system: MCF7 breast

In the case of `C/C=C/CC(C)C(O)[C@H](NC(=O)[C@@H]1CCCN1C(=O)C(C)(C)NC(=O)CCCCCCCCC)C(=O)N[C@@](C)(CC)C(=O)N[C@@H](CCC(N)=O)C(=O)N[C@H](CCC(N)=O)C(=O)NC(C)(C)C(=O)NC(C)(C)C(=O)N[C@@H](CCC(N)=O)C(=O)N[C@H](CC(C)C)C(=O)N[C@H](CO)CC(C)C` (stereo partly drawn) (Decanoyl-[Aib]P[X11][Iva]Q[dQ][Aib][Aib]Q[dL][Leu(ol)]), the GI50 [1] is reported as 2 µM, the TGI [1] is reported as 4.44 µM and the GI50 [2] is reported as 1.56 µM. It also gave a TGI [2] of 3.12 µM, a GI50 [3] of 3.85 µM and a TGI [3] of 8.71 µM. It also gave a GI50 [4] of 1.84 µM, a TGI [4] of 4.08 µM and a GI50 [5] of 2.05 µM. The TGI [5] was 4.51 µM, the GI50 [6] was 1.83 µM and the TGI [6] was 3.56 µM. It also gave a GI50 [7] of 2.13 µM, a TGI [7] of 4.93 µM and a GI50 [8] of 1.99 µM. It also gave a TGI [8] of 4.06 µM, a GI50 [9] of 2.31 µM and a TGI [9] of 5.95 µM. It also gave a GI50 [10] of 1.73 µM, a TGI [10] of 3.29 µM and a GI50 [11] of 1.7 µM. The TGI [11] was 3.15 µM, the GI50 [12] was 1.7 µM and the TGI [12] was 3.36 µM. It also gave a GI50 [13] of 1.78 µM, a TGI [13] of 3.49 µM and a GI50 [14] of 1.73 µM. For the same molecule, the TGI [14] was 3.3 µM, the GI50 [15] was 1.84 µM and the TGI [15] was 3.99 µM. For the same molecule, the GI50 [16] was 2.54 µM, the TGI [16] was 6.93 µM and the GI50 [17] was 1.71 µM. For the same molecule, the TGI [17] was 3.16 µM, the GI50 [18] was 1.95 µM and the TGI [18] was 4 µM. It also gave a GI50 [19] of 2.41 µM, a TGI [19] of 5.68 µM and a GI50 [20] of 3.91 µM. It also gave a TGI [20] of 9.05 µM, a GI50 [21] of 2.45 µM and a TGI [21] of 6.09 µM. It also gave a GI50 [22] of 1.95 µM, a TGI [22] of 3.94 µM and a GI50 [23] of 1.76 µM. It also gave a TGI [23] of 3.16 µM, a GI50 [24] of 1.85 µM and a TGI [24] of 3.77 µM. The GI50 [25] was 2.17 µM, the TGI [25] was 4.92 µM and the GI50 [26] was 1.37 µM. The TGI [26] was 3.07 µM, the GI50 [27] was 2.33 µM and the TGI [27] was 4.93 µM. For the same molecule, the GI50 [28] was 1.76 µM, the TGI [28] was 3.17 µM and the GI50 [29] was 1.81 µM. It also gave a TGI [29] of 3.51 µM.
